Patent publication US9050353B2, “Use of icariin and epimedium flavonoids containing icariin to treat diseases associated with myelin sheath lesion” (Xuanwu Hospital of Capital Medical University, priority 2010, dated 2015)

Experiments:
[1] = system: experimental autoimmune encephalomyelitis (EAE) mice model; experiment: Nervous function damage score in EAE mice model; type: in vivo, C57BL/6J mice; details: peak of attack, scale 0-5
Method: (§1) Preparation of mice model and administration: experimental autoimmune encephalomyelitis (EAE) mice model is an important tool for studying various human demyelinating diseases of nervous system. In the present experiment, the preparation of EAE mice model was performed by immunizing female C57BL/6J mice with myelin sheath oligodendroglial cell surface glycoprotein MOG35-55. That is, the mice were subcutaneously injected at dorsal part of spinal column with 0.2 mL of MOG35-55 antigen elixir, and 0.2 ml of bordetella pertussis solution was intraperitoneally injected at the time of immunization injection and 48 h thereafter, respectively. Icariin was intragastrically administered after the last injection of bordetella pertussis solution, for consecutive 3 weeks.
Nervous function test method: the ethological changes of mice were observed by two experimenters every day using blind method. Scoring standard: 0 score, absence of symptom; 1 score, decrease of tail tension, evident slight gait awkward; 2 score, disappearance of tail tension, moderate gait abnormal, deficient in maintaining gesture; 3 score, limb strength weak; 4 score, limb paralysis; 5 score, near death or died.

[2] = system: myeloid tissue myelinoclasis in EAE mice model; experiment: Myelinoclasis of myeloid tissue, LFB staining, EAE mice; type: in vivo; details: scale 0-4
Method: as §1
Experimental objective: the myelinoclasis of myeloid tissue of EAE model mice were assayed by Luxol Fast Blue (LFB) staining, and the intervention effects of icariin on this pathological change were studied.
Experimental method: the mice were anesthetized with 10% chloral hydrate on the 29th day of experiment, fixed by perfusion of 4% paraformaldehyde, myeloid tissues were taken for making paraffin sections, section thickness […]. Stained with LFB, observed under microscope, and scored according to the following standard: 0 score, absence of myelinoclasis; 1 score, one small range of myelinoclasis; 2 score, 2 or 3 small ranges of myelinoclasis; 3 score, 1 to 2 large ranges of myelinoclasis; 4 score, large ranges of myelinoclasis accumulatively existing in 20% or more of white matter regions.

[3] = system: inflammatory cell infiltration in spinal cord tissues of EAE mice model; experiment: Inflammatory cell infiltration in spinal cord, HE staining, EAE mice; type: in vivo; details: scale 0-4
Method: as §1
Experimental objective: the pathological changes of spinal cord in EAE model, especially inflammatory cell infiltration situations was assayed by hematoxylin-eosin (HE) staining test, and the intervention effects of […] on these pathological changes were observed.
Experimental method: the mice were anesthetized with 10% chloral hydrate on the 28th day of experiment, fixed by perfusion of 4% paraformaldehyde, spinal cord tissues were taken for making paraffin sections, section thickness […]. Stained with HE, observed under microscope, and scored according to the following standard: 0 score, absence of cell infiltration; 1 score, spinal meninge cell infiltration; 2 score, 1 to 4 small ranges of cell infiltration around vessels; 3 score, 5 or more small ranges of cell infiltration around vessels, or one or more accumulatively substantial large range of cell infiltration; 4 score, a large number of cell infiltration ranges accumulatively existing in 20% or more of white matter regions.

IL-1 = experiment: Serum IL-1 content by ELISA, EAE mice; type: in vivo
Method: as §1
(§2) Experimental objective: interleukin-1 (IL-1) and IL-6 are important inflammatory cytokines, and have promoting effects on inflammatory reactions. This experiment used enzyme linked immunosorbent assay (ELISA) to measure contents of IL-1 and IL-6 in serums of EAE mice model, and the effects of icariin on these contents were observed.
(§3) Experimental method: mice were anesthetized with pentobarbital sodium, blood sample was taken from abdominal aorta, stood at room temperature for 2 h, centrifuged at 3000 rpm for 20 min, and supernatant was taken, stored at −80° C. for use. The operation was performed strictly according to the steps of specification of ELISA kit. Optical density was measured with ELIASA at 450 nm. The corresponding contents of IL-1 and IL-6 were calculated with the measured OD values on standard curves.

IL-6 = experiment: Serum IL-6 content by ELISA, EAE mice; type: in vivo
Method: as §1, §2, §3

[4] = system: peripheral blood CD4+ and CD8+ T cells; experiment: Peripheral blood T cell subgroup by flow cytometer, EAE mice; type: in vivo
Method: as §1
Experimental objective: one common feature of autoimmune diseases is the […]. In this experiment, the numbers of CD4+ and CD8+ cells in peripheral blood T cell subgroup of EAE mice mode were measured by flow cytometer (FACS), and the ratio of them was obtained; and the effects of icariin on these changes were observed.
Experimental method: mice were anesthetized with pentobarbital sodium, blood sample was taken from abdominal aorta, stood at room temperature for 2 h, centrifuged at 3000 rpm for 20 min, and cells were taken, added with anti-CD4+, CD8+ T cell antibodies with different markers, then the percentages of CD4+, CD8+ cells in T lymphocytes were measured by flow cytometer, and the CD4+/CD8+ T cells ratio was calculated.

CNPase = experiment: Spinal cord CNPase by Western blot, EAE mice; type: in vivo
Method: as §1
(§4) Experimental objective: myelin sheath is formed with prominences of oligodendroglial cells. CNPase, myelin basic protein (MBP) are marker proteins of mature oligodendroglial cells. The present experiment was to observe the expression of CNPase and MBP to represent the content of oligodendroglial cells in spinal cord of EAE model mice by Western blot method; and to study the effects of icariin on it.
(§5) Experimental method: the mice were anesthetized and sacrificed, fresh spinal cord was taken on ice, total protein was extracted by cleavage on ice, to prepare Western blot sample, added separately with CNPase, MBP primary antibodies and incubated, added with corresponding secondary antibodies, ECL colorated, Kodak film exposed. Pictures were analyzed with Image J software and standardized with β-actin.

[5] = system: myelin basic protein (MBP); experiment: Spinal cord MBP by Western blot, EAE mice; type: in vivo
Method: as §1, §4, §5

## COc1ccc(-c2oc3c(CC=C(C)C)c(OC4OC(CO)C(O)C(O)C4O)cc(O)c3c(=O)c2OC2OC(C)C(O)C(O)C2O)cc1 (stereo not drawn) [icariin, 3-((6-deoxymannopyranosyl)oxy)-7-(glucopyranosyloxy)-5-hydroxy-2-(4-methoxyphenyl)-8-(3-methyl-2-butenyl)-4H-1-benzopyran-4-ketone]
[1]; 3 mg/kg intragastric
  Nervous function damage score: 0.57 ± 0.49
[1]; 10 mg/kg intragastric
  Nervous function damage score: 0.32 ± 0.52
[1]; 30 mg/kg intragastric
  Nervous function damage score: 0.13 ± 0.34
[2]; 3 mg/kg
  Myelinoclasis (LFB staining score): 0.91 ± 0.21
[2]; 10 mg/kg
  Myelinoclasis (LFB staining score): 0.78 ± 0.16
[2]; 30 mg/kg
  Myelinoclasis (LFB staining score): 0.66 ± 0.20
[3]; 3 mg/kg
  Inflammatory cell infiltration (HE staining score): 2.08 ± 0.09
[3]; 10 mg/kg
  Inflammatory cell infiltration (HE staining score): 1.58 ± 0.16
[3]; 30 mg/kg
  Inflammatory cell infiltration (HE staining score): 1.18 ± 0.21
IL-1; 3 mg/kg
  IL-1 content: 0.119 ± 0.003 pg/mL
IL-1; 10 mg/kg
  IL-1 content: 0.114 ± 0.001 pg/mL
IL-1; 30 mg/kg
  IL-1 content: 0.113 ± 0.002 pg/mL
IL-6; 3 mg/kg
  IL-6 content: 0.147 ± 0.011 pg/mL
IL-6; 10 mg/kg
  IL-6 content: 0.142 ± 0.013 pg/mL
IL-6; 30 mg/kg
  IL-6 content: 0.126 ± 0.011 pg/mL
[4]; 3 mg/kg
  CD4 + T cells: 52.78 ± 3.30%
  CD4 +/CD8 + ratio: 1.25 ± 0.20
  CD8 + T cells: 42.61 ± 3.10%
[4]; 10 mg/kg
  CD4 + T cells: 58.89 ± 1.27 %
  CD4 +/CD8 + ratio: 1.62 ± 0.06
  CD8 + T cells: 36.43 ± 0.38 %
[4]; 30 mg/kg
  CD4 + T cells: 55.81 ± 1.41%
  CD4 +/CD8 + ratio: 1.39 ± 0.12
  CD8 + T cells: 40.20 ± 1.79%
CNPase; 3 mg/kg
  CNPase/actin Integration grey level: 1.16 ± 0.04
CNPase; 10 mg/kg
  CNPase/actin Integration grey level: 1.28 ± 0.07
CNPase; 30 mg/kg
  CNPase/actin Integration grey level: 1.33 ± 0.05
[5]; 3 mg/kg
  MBP/actin Integration grey level: 0.98 ± 0.13
[5]; 10 mg/kg
  MBP/actin Integration grey level: 1.07 ± 0.08
[5]; 30 mg/kg
  MBP/actin Integration grey level: 1.11 ± 0.06
